Reference: patent US9353094B2, “Substituted quinoxalines as kinase inhibitors” (BOARD OF REGENTS OF THE UNIVERSITY OF NEBRASKA, priority 2010, dated 2016)

What was measured:
Assay in all cases: Cell growth inhibition assay (alamar blue)
Format in all cases: cell-based
[1] = system: human breast MDA-MB-231 tumor cell line; conditions: MDA-MB-231, 20 μM, 72 h
Method: (§1) The compounds were screened in a growth inhibition assay at 20 μM over a 72 h period in a panel of cancer cell lines (lung-A549; pancreatic-Aspc1; colon-HT29; breast-MDAMB231; prostate-PC3; ovarian-SKOV3 and bone-U2OS) and the results are summarized in Table 2. […] This size effect was also observed with the urea compounds from the secondary amine (6j vs. 6l and 6k vs. 6m).
(§2) Cell Growth Inhibition Assay. Human lung A549, human pancreatic AsPC1, human colorectal HT-29, human breast MDA-MB-231, human prostate PC3, human ovarian SKOV3, and human osteosarcoma U2OS tumor cell lines were cultured in basal media containing 10% FBS and maintained in a 37° C. incubator with 5% CO2. All compounds were screened in 96 well microtiter plate format. In general, each cell line was plated at optimal assay density in 95 μl of propagation media in 96 well plates and incubated overnight. The next day, a standard alamar blue assay was performed (see below) on representative wells of each cell line for a Tz calculation. Subsequently, cells were treated in duplicate with a 5 μl volume of either vehicle only, positive controls etoposide and taxol, or test compounds at 20 μM (highest soluble compound concentration). The treated cells were incubated for 72 h and then assayed for growth by alamar blue assay. Briefly, 10 μl of reagent was added to each well and the plates returned to 37° C. After 3 h, fluorescence at 544ex/590em was measured using a SpectraMax M5 (Molecular Devices) plate reader. Growth is represented as a percentage of the control cells that were treated with vehicle only and % growth inhibition was determined using the NCI algorithm: Tz=number of untreated cells at zero time, C=Number of control cells at 72 h time, and T=number of compound treated cells at 72 h time; 100*([T−Tz]/[C−Tz]).

[2] = system: human colorectal HT-29 tumor cell line; conditions: HT29, 20 μM, 72 h
Method: as §1, §2

[3] = system: human lung A549 tumor cell line; conditions: A549, 20 μM, 72 h
Method: as §1, §2

[4] = system: human osteosarcoma U2OS tumor cell line; conditions: 72 h
Method: as §1, §2

[5] = system: human ovarian SKOV3 tumor cell line; conditions: SKOV3, 20 μM, 72 h
Method: as §1, §2

[6] = system: human pancreatic AsPC1 tumor cell line; conditions: AsPC1, 20 μM, 72 h
Method: as §1, §2

[7] = system: human prostate PC3 tumor cell line; conditions: PC3, 20 μM, 72 h
Method: as §1, §2

Structure (SMILES) | % Growth inhibition at 20 μM [1] | % Growth inhibition at 20 μM [2] | % Growth inhibition at 20 μM [3] | % Growth inhibition at 20 μM [4] | % Growth inhibition at 20 μM [5] | % Growth inhibition at 20 μM [6] | % Growth inhibition at 20 μM [7]
CC(=O)Nc1ccc2nc(-c3cccs3)c(-c3cccs3)nc2c1 [5c] | Inactive | Inactive | Inactive | Inactive | Inactive | Inactive | Inactive
CC(=O)Nc1ccc2nc(-c3ccccc3)c(-c3ccccc3)nc2c1 [5d] | Inactive | Inactive | Inactive | Inactive | Inactive | Inactive | Inactive
Cc1nc2ccc(NC(=O)Nc3ccccc3)cc2nc1C [5e] | Inactive | Inactive | Inactive | Inactive | Inactive | Inactive | Inactive
O=C(Nc1ccccc1)Nc1ccc2nc(-c3cccs3)c(-c3cccs3)nc2c1 [5g] | Inactive | Inactive | Inactive | Inactive | Inactive | Inactive | Inactive
O=C(Nc1ccccc1)Nc1ccc2nc(-c3ccccc3)c(-c3ccccc3)nc2c1 [5h] | Inactive | Inactive | Inactive | Inactive | Inactive | Inactive | Inactive
Cc1ccc(S(=O)(=O)N(c2ccc3nc(-c4ccco4)c(-c4ccco4)nc3c2)S(=O)(=O)c2ccc(C)cc2)cc1 [5j] | Inactive | Inactive | Inactive | Inactive | Inactive | Inactive | Inactive
Cc1ccc(S(=O)(=O)N(c2ccc3nc(-c4cccs4)c(-c4cccs4)nc3c2)S(=O)(=O)c2ccc(C)cc2)cc1 [5k] | Inactive | Inactive | Inactive | Inactive | Inactive | Inactive | Inactive
Cc1ccc(S(=O)(=O)Nc2ccc3nc(-c4ccccc4)c(-c4ccccc4)nc3c2)cc1 [5l] | Inactive | Inactive | Inactive | Inactive | Inactive | Inactive | Inactive
S=C(Nc1ccccc1)Nc1ccc2nc(-c3cccs3)c(-c3cccs3)nc2c1 [6b] | Inactive | Inactive | Inactive | Inactive | Inactive | Inactive | Inactive
S=C(Nc1ccccc1)Nc1ccc2nc(-c3ccccc3)c(-c3ccccc3)nc2c1 [6c] | Inactive | Inactive | Inactive | Inactive | Inactive | Inactive | Inactive
O=[N+]([O-])c1ccc(NC(=S)Nc2ccc3nc(-c4cccs4)c(-c4cccs4)nc3c2)cc1 [6e] | 53.3 ± 7.2% | 23.9 ± 27.8% | Inactive | 50.6 ± 3.9% | Inactive | Inactive | 19.5 ± 37.4%
O=[N+]([O-])c1ccc(NC(=S)Nc2ccc3nc(-c4ccccc4)c(-c4ccccc4)nc3c2)cc1 [6f] | 72.6 ± 0.7% | 81.2 ± 0.7% | 16.6 ± 11.2% | 76.1 ± 0.4% | 55.8 ± 30.7% | 55.5 ± 25.4% | 81.0 ± 8.5%
Cc1nc2ccc(NC(=O)N3CCCC3)cc2nc1C [6g] | Inactive | Inactive | Inactive | Inactive | Inactive | Inactive | Inactive
O=C(Nc1ccc2nc(-c3ccccc3)c(-c3ccccc3)nc2c1)N1CCCC1 [6i] | 16.7 ± 3.9% | Inactive | 11.0 ± 1.3% | 54.2 ± 2.2% | 18.5 ± 4.3% | 29.4 ± 9.8% | 56.9 ± 2.7%
Cc1nc2ccc(NC(=O)N3CCC(Cc4ccccc4)CC3)cc2nc1C [6j] | 12.4 ± 5.0% | 16.3 ± 10.1% | 40.3 ± 1.9% | 33.5 ± 0.4% | 8.9 ± 5.1% | Inactive | 30.6 ± 11.6%
Cc1nc2ccc(NC(=O)N3CCCCC3)cc2nc1C [6l] | Inactive | Inactive | Inactive | Inactive | Inactive | Inactive | Inactive
O=C(Nc1ccc(F)cc1)Nc1ccc2nc(-c3ccco3)c(-c3ccco3)nc2c1 [7a] | 38.4 ± 2.7% | 74.2 ± 5.2% | >100% | 55.6 ± 6.6% | Inactive | >100% | 90.7 ± 4.1%
O=C(Nc1ccc(Cl)cc1)Nc1ccc2nc(-c3ccco3)c(-c3ccco3)nc2c1 [7b] | 92.5 ± 6.6% | 86.3 ± 7.7% | 99.2 ± 5.2% | 87.4 ± 1.1% | 55.8 ± 24.1% | 81.1 ± 2.0% | 86.4 ± 1.1%
